Experimental data taken from PubChem BioAssay AID732 (Emory University Molecular Libraries Screening Center, 2007).
Active and inactive are the calls of the source. How the calls were made is not given here.

Test system: in vivo angiogenesis, blood vessel count
Assay: reduction of blood vessel formation in vivo – HTS, in vivo study (AID 732);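 further: zebrafish embryos dosed at one day post fertilization; 0% = reference inhibitor and 100% = plate mean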
Conditions: hits give low values;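 tested at 30 µM in the well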

Row | Structure (SMILES) | vessel count % control
1 | CCC1(O)CC2CN(CCc3c([nH]c4ccccc34)[C@@](C(=O)OC)(c3cc4c(cc3OC)N(C)C3[C@]45CCN4CC=C[C@@](CC)([C@@H](OC(C)=O)[C@]3(O)C(=O)OC)[C@H]45)C2)C1 (stereo partly drawn) | 112% (inactive)
2 | OCCN(CCO)c1nc(N2CCCCC2)c2nc(N(CCO)CCO)nc(N3CCCCC3)c2n1 | 109% (inactive)
3 | COC(=O)c1c(-c2cc(OC)c(OC)c(OC)c2)c2ccc(OCc3ccccn3)cc2c(=O)n1-c1ccc(N)cc1 | 109% (inactive)
4 | CCC(=O)N1CCN(C(=O)c2ccccc2)CC1 | 134% (inactive)
5 | CN(C)c1ccc(/C=C2\C(=O)Nc3ccccc32)cc1 | 36.7%
6 | OCC1NCC(O)C(O)C1O (stereo not drawn) | 97.9% (inactive)
7 | C[Se]C[C@H](N)C(=O)O | 103% (inactive)
8 | CCCC(C)(COC(N)=O)COC(=O)NC(C)C (stereo not drawn) | 103% (inactive)
9 | N#C/C(=C\c1ccc(O)c(O)c1)C(=O)NCc1ccccc1 | 95.6% (inactive)
10 | CN(C)CCCN1c2ccccc2Sc2ccccc21 | 93.7% (inactive)
11 | C[C@]12CC[C@H]3[C@@H](CCC4C[C@H](O)CC[C@@]43C)[C@@H]1CC[C@@H]2O (stereo partly drawn) | 106% (inactive)
12 | CCOC(=O)c1ncn2c1CN(C)C(=O)c1cc(F)ccc1-2 | 98.9% (inactive)
13 | CN1C[C@H](CNC(=O)OCc2ccccc2)C[C@@H]2c3cccc4c3c(cn4C)C[C@H]21 | 111% (inactive)
14 | CC1=C(/C=C/C(C)=C/C=C/C(C)=C\C(=O)O)C(C)(C)CCC1 | 76.1% (inactive)
15 | CC(C)C[C@H](NC(=O)C1OC1C(=O)O)C(=O)NCCCCN=C(N)N (stereo partly drawn) | 108% (inactive)
16 | CC(C)C[C@H](NC(=O)[C@H](O)[C@H](N)Cc1ccccc1)C(=O)O | 104% (inactive)
17 | OCC1NC[C@@H](O)C(O)[C@@H]1O (stereo partly drawn) | 89.4% (inactive)
18 | CN1CCC[C@H]1c1cccnc1 | 120% (inactive)
19 | CCCn1c(=O)[nH]c(=O)c2[nH]cnc21 | 97.5% (inactive)
20 | CCC(CO)Nc1nc(NCc2ccccc2)c2ncn(C(C)C)c2n1 (stereo not drawn) | 82.5% (inactive)
21 | CCCCc1oc2ccccc2c1C(=O)c1cc(I)c(OCCN(CC)CC)c(I)c1 | 120% (inactive)
22 | Cn1c(=O)[nH]c2ncn(C)c2c1=O | 95.7% (inactive)
23 | CCCn1c(=O)c2c(ncn2C)n(CCC)c1=O | 98.7% (inactive)
24 | O=C(O)C1CCCNC1 (stereo not drawn) | 120% (inactive)
25 | Nc1ncnc2c1ncn2[C@@H]1O[C@H](COP(=O)(O)CP(=O)(O)OP(=O)(O)O)[C@H](O)C1O (stereo partly drawn) | 95.1% (inactive)

Row | Structure (SMILES) | vessel count % control
26 | COc1ccc(CNC(=O)/C=C/c2ccc3[nH]cc(CCN(C)C)c3c2)cc1 | 75.8% (inactive)
27 | Cc1scc2c1N(C(=O)CN1CCN(C)CC1)c1ccccc1NC2=O | 93.3% (inactive)
28 | O=C1Nc2ccc(I)cc2/C1=C/c1cc(Br)c(O)c(Br)c1 | 69.8% (inactive)
29 | c1ccc2nc(C3=NCCN3)ccc2c1 | 97.4% (inactive)
30 | CNCCC(Oc1ccccc1OC)c1ccccc1 (stereo not drawn) | 113% (inactive)
31 | O=C1c2c(O)ccc(O)c2C(=O)c2c(NCCNCCO)ccc(NCCNCCO)c21 | 136% (inactive)
32 | N[C@@H](CC(=O)O)C(=O)O | 94.7% (inactive)
33 | CC(=O)N[C@@H](CS)C(=O)O | 96.5% (inactive)
34 | Cc1cccc2c(-c3[nH]c4ccccc4c3N=O)c(O)[nH]c12 | 25.1%
35 | COc1c2c(nc3ccccc13)OC(C(C)(O)CO)C2 (stereo not drawn) | 120% (inactive)
36 | COC(=O)[C@@H](N)Cc1ccc(O)c(O)c1 | 99.1% (inactive)
37 | CCCC[C@@]1(C2CCCC2)Cc2cc(OCC(=O)O)c(Cl)c(Cl)c2C1=O | 121% (inactive)
38 | COc1ccc(Cl)cc1C(=O)NCCc1ccc(S(=O)(=O)NC(=O)NC2CCCCC2)cc1 | 94.8% (inactive)
39 | CCCNC[C@H](O)COc1ccccc1C(=O)CCc1ccccc1 | 93.1% (inactive)
40 | CNCC[C@H](Oc1ccc(C(F)(F)F)cc1)c1ccccc1 | 98.4% (inactive)
41 | NCC(O)C1CCCCCCC1 (stereo not drawn) | 95.9% (inactive)
42 | Nc1ncnc2c1ncn2[C@@H]1O[C@H](CO)[C@H](O)C1O (stereo partly drawn) | 105% (inactive)
43 | CN(C)CCCN1c2ccccc2CCc2ccccc21 | 104% (inactive)
44 | Cc1ccc2c(c1)C(N1CCN(C)CC1)=Nc1cccnc1N2 | 127% (inactive)
45 | CN(C)CCC(c1ccc(Br)cc1)c1ccccn1 (stereo not drawn) | 92.3% (inactive)
46 | CCCN(CCC)[C@@H]1CCc2ccc(O)cc2C1 | 93.2% (inactive)
47 | CCc1c(C(=O)OC)ncc2[nH]c3cc(OC)c(OC)cc3c12 | 129% (inactive)
48 | COC1(C2=NCCN2)COc2ccccc2O1 (stereo not drawn) | 121% (inactive)
49 | N#C/C(=C\c1ccc(O)c(O)c1)C(=O)NCCCc1ccccc1 | 137% (inactive)
50 | O=C1N=C(O)CN1/N=C/c1ccc(-c2ccc([N+](=O)[O-])cc2)o1 | 90.4% (inactive)

Row | Structure (SMILES) | vessel count % control
51 | O=C(O)c1ccccc1Nc1ccccc1 | 109% (inactive)
52 | CCn1nc(C(=O)O)c(=O)c2cc3c(cc21)OCO3 | 102% (inactive)
53 | CCOC(=O)C1=C[C@]2(CC)CCCN3CCc4c(n1c1ccccc41)[C@@H]32 | 0% (inactive)
54 | O=P(O)(O)C(Cl)(Cl)P(=O)(O)O | 110% (inactive)
55 | NC(=O)NO | 97.8% (inactive)
56 | CC(C)[N+](C)(CCOC(=O)C1c2ccccc2Oc2ccccc21)C(C)C | 134% (inactive)
57 | COc1cc(C(O)CN)ccc1O (stereo not drawn) | 83.3% (inactive)
58 | CCCN1CCC[C@@H](c2cccc(C#N)c2)C1 | 103% (inactive)
59 | CNCCc1c[nH]c2ccc(O)cc12 | 101% (inactive)
60 | NC(=O)c1ccccc1 | 92% (inactive)
61 | OC[C@H]1O[C@@H](n2cnc3cncnc32)[C@H](O)[C@@H]1O | 82.1% (inactive)
62 | CC(Cc1ccc(O)cc1)NCC(O)c1cc(O)cc(O)c1 (stereo not drawn) | 114% (inactive)
63 | COc1ccccc1N1CCN(CCCCNC(=O)c2ccc3ccccc3c2)CC1 | 52% (inactive)
64 | Clc1ccc(C(c2ccccc2Cl)C(Cl)Cl)cc1 (stereo not drawn) | 92.7% (inactive)
65 | NC(N)=NOCC[C@H](N)C(=O)O | 94.1% (inactive)
66 | CCCCC/C=C\CC(O)/C=C/c1cccc(CC(O)CCCCO)n1 (stereo not drawn) | 100% (inactive)
67 | COc1ccc(CCN(C)CCc2ccc(OC)c(OC)c2)cc1OC | 101% (inactive)
68 | C=CC1(C)CC(=O)C2(O)C(C)(O1)C(OC(C)=O)C(O)C1C(C)(C)CCC(O)C12C (stereo not drawn) | 97% (inactive)
69 | CC1(C(=O)O)C2CCC(O2)C1(C)C(=O)O (stereo not drawn) | 0% (inactive)
70 | NC12CC3CC(CC(C3)C1)C2 | 110% (inactive)
71 | COc1cc2nc(N3CCN(C(=O)c4ccco4)CC3)nc(N)c2cc1OC | 107% (inactive)
72 | CCCCNc1c(C(=O)OCC)c(C)nc2c1cnn2CC | 87.3% (inactive)
73 | C=C/C(C)=C/[C@@]1(C)SC(=O)C(C)=C1O | 97.7% (inactive)
